Data set [1] concerns the target dopamine transporter (DAT) (Rattus norvegicus, UniProt P23977). Put plainly: Dopamine reuptake ([^3H]dopamine uptake) inhibition in rat brain synaptosomes. The settings on record: for IC50: DA Uptake EC50 (nM ± SD), rat caudate synaptosomes, 5 nM [^3H]dopamine, 15 min, 25° C., three experiments pooled; for Emax: read-out: DA Uptake Emax (% I ± SD).

The values that follow come from patent US9873702B2, “Heterocyclic compounds as biogenic amine transport modulators” (Southern Research Institute, priority 2014, dated 2018).

dopamine transporter (DAT), sequence (P23977 whole entry): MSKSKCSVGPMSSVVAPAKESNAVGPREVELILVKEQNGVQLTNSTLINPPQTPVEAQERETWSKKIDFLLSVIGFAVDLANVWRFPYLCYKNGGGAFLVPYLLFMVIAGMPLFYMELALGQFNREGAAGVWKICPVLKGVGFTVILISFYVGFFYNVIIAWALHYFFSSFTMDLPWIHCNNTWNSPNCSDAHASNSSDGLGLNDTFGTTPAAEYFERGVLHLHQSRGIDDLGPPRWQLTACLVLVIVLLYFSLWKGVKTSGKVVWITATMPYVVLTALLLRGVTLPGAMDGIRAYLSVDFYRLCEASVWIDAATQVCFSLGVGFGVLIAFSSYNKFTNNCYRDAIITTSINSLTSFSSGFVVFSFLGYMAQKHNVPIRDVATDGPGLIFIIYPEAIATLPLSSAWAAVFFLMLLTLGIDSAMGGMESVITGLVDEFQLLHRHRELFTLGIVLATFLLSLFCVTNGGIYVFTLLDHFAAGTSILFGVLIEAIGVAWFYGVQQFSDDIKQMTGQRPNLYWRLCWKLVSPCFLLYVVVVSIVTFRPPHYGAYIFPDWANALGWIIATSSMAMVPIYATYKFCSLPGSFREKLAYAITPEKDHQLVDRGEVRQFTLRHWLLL

For the compound `c1ccc(C(CNc2nc(N3CCc4ccccc4C3)nc3ccccc23)c2ccccc2)cc1` [compound 193, 2-(3,4-Dihydroisoquinolin-2(1H)-yl)-N-(2,2-Diphenylethyl)Quinazolin-4-Amine], the melting point – broadly, the temperature, or range, at which the solid turns liquid – was in the range of 250 to 253 °C. Moreover, in data set [1], it took 1.7 ± 0.4 nM to reach half-maximal inhibition (IC50) and the Emax (commonly the maximal effect, on the per cent scale that the assay sets) turned out to be 77 ± 3%.

Regarding `c1ccc(C(CNc2nc(-c3cncnc3)nc3ccccc23)c2ccccc2)cc1` [compound 18, N-(2,2-Diphenylethyl)-2-(Pyrimidin-5-yl)Quinazolin-4-Amine], the melting point fell in the range of 213 to 215 °C. In addition, in data set [1], inhibition was half-maximal at 160 nM (IC50) and the Emax is less than 100%.

`Cc1cc2nccn2cc1-c1nc(NCCc2ccccc2)c2ccccc2n1` [compound 160, 2-(7-Methylimidazo[1,2-A]Pyridin-6-yl)-N-Phenethylquinazolin-4-Amine]: the melting point is 192 to 196 °C. Further, in data set [1], the IC50 – broadly, the concentration that inhibits the measured activity by half – was 11 ± 1 nM and the Emax is 69 ± 1%.

As for `Nc1ncc(-c2nc(NCC(c3ccccc3)c3ccncc3)c3ccccc3n2)cn1` (centres unmarked) [compound 107, 2-(2-Aminopyrimidin-5-yl)-N-(2-Phenyl-2-(Pyridin-4-yl)Ethyl)Quinazolin-4-Amine], the melting point is 219 °C. In data set [1], the midpoint of inhibition, the IC50, lay at 197 ± 40 nM and the Emax is 81 ± 3%.

The compound `c1ccc(CC(Nc2nc(-c3ccc4nccn4c3)nc3ccccc23)c2ccccc2)cc1` (centres unmarked) [compound 165, N-(1,2-Diphenylethyl)-2-(Imidazo[1,2-A]pyridin-6-yl)Quinazolin-4-Amine] displayed a melting point of 203 to 204 °C. Further, in data set [1], the IC50 was 14 ± 2 nM and the Emax worked out at 78 ± 2%.

`Cc1cc2nccn2cc1-c1nc(NCC(CN(C)C)c2ccccc2)c2ccccc2n1` (centres unmarked) [compound 192, N1,N1-Dimethyl-N3-(2-(7-Methylimidazo[1,2-A]Pyridin-6-yl)Quinazolin-4-yl)-2-Phenylpropane-1,3-Diamine] displayed a melting point of 250 to 252 °C. For the same compound, in data set [1], the IC50 amounted to 10 ± 3 nM and the Emax was 77 ± 4%.

Compound `COc1cc2nc(-c3cnc(N(C)C)nc3)nc(NCC(c3ccccc3)c3ccccc3)c2cc1OC` [compound 23, 2-(2-(Dimethylamino)Pyrimidin-5-yl)-N-(2,2-Diphenylethyl)-6,7-Dimethoxyquinazolin-4-Amine] yielded a melting point of 92 °C. In data set [1], 720 nM corresponded to half-maximal inhibition (IC50) and the Emax worked out at 100%.

Compound `COc1ccc2nc(-c3cccnc3)nc(NCC(c3ccccc3)c3ccccc3)c2c1` [compound 59, N-(2,2-Diphenylethyl)-6-Methoxy-2-(Pyridin-3-yl)Quinazolin-4-Amine] yielded a melting point of 77 °C. Moreover, in data set [1], the IC50 was 529 ± 146 nM and the Emax is 56 ± 3%.

On to `Cc1cc2nccn2cc1-c1nc(NCC(c2cccnc2)c2ccc[nH]2)c2ccccc2n1` (centres unmarked) [compound 156, 2-(7-Methylimidazo[1,2-A]Pyridin-6-yl)-N-(2-(Pyridin-3-yl)-2-(1H-Pyrrol-2-yl)Ethyl)Quinazolin-4-Amine], for which the melting point is 121 to 125 °C. In addition, in data set [1], the IC50 was found to be 14 ± 3 nM and the Emax worked out at 68 ± 2%.

For `CN(C)Cc1c[nH]c2ccc(-c3nc(NCC(c4ccccc4)c4ccccc4)c4ccccc4n3)cc12` [compound 111, 2-(3-((Dimethylamino)methyl)-1H-Indol-5-yl)-N-(2,2-Diphenylethyl)Quinazolin-4-Amine], the melting point came out at 182 °C. For the same compound, in data set [1], half-maximal inhibition (IC50) was put at 381 ± 42 nM and the Emax was 101 ± 2%.

The compound `CC(C)C(CNc1nc(N2CCc3[nH]ccc3C2)nc2ccccc12)c1ccccc1` (centres unmarked) [compound 201, 2-(6,7-Dihydro-1H-Pyrrolo[3,2-c]Pyridin-5(4H)-yl)-N-(3-Methyl-2-Phenylbutyl)Quinazolin-4-Amine] came in with a melting point of 221 to 223 °C. For the same compound, in data set [1], 7.2 ± 2.6 nM corresponded to half-maximal inhibition (IC50) and the Emax was determined as 88 ± 5%.

For `c1ccc(C(CNc2nc(-c3ccc4[nH]cnc4c3)nc3ccccc23)c2ccccc2)cc1` [compound 85, 2-(1H-Benzo [D]Imidazol-5-yl)-N-(2,2-Diphenylethyl)Quinazolin-4-Amine], the melting point was 142 °C. Moreover, in data set [1], the IC50 is greater than 5000 nM.

In the case of `c1ccc(C(CNc2nc(-n3cncn3)nc3ccccc23)c2ccccc2)cc1` [compound 52, N-(2,2-Diphenylethyl)-2-(1H-1,2,4-Triazol-1-yl)Quinazolin-4-Amine], the melting point was 216 °C. Besides, in data set [1], the IC50 was 680 nM and the Emax is 100%.

As to `CN(C)c1ccc(-c2nc(NCCC(c3ccccc3)c3ccccc3)c3ccccc3n2)cn1` [compound 93, 2-(6-(Dimethylamino)Pyridin-3-yl)-N-(3,3-Diphenylpropyl)Quinazolin-4-Amine], the melting point was determined as 195 °C. Further, in data set [1], the 50% inhibitory concentration (IC50) was 29 ± 4 nM and the Emax worked out at 76 ± 2%.

The compound `Cn1ncc2cc(-c3nc(NCC(c4ccccc4)c4ccccc4)c4ccccc4n3)ccc21` [compound 67, N-(2,2-Diphenylethyl)-2-(1-Methyl-1H-Indazol-5-yl)Quinazolin-4-Amine] gave a melting point of 200 °C. Moreover, in data set [1], the IC50 was determined as 43 ± 9 nM and the Emax was 66 ± 2%.

The compound `c1ccc(C(CNc2nc(N3CCc4[nH]c5ccccc5c4C3)nc3ccccc23)c2ccccc2)cc1` [compound 191, 2-(3,4-Dihydro-1H-Pyrido[4,3-B]Indol-2(5H)-yl)-N-(2,2-Diphenylethyl)Quinazolin-4-Amine] displayed a melting point of 258 to 260 °C. Besides, in data set [1], the IC50 was 16 ± 3 nM and the Emax was determined as 78 ± 2%.

The compound `c1ccc(CCNc2nc(-c3ccc4nccn4c3)nc3ccccc23)cc1` [compound 161, 2-(Imidazo[1,2-A]Pyridin-6-yl)-N-Phenethylquinazolin-4-Amine] returned a melting point of 246 to 247 °C. Moreover, in data set [1], the IC50 is 168 ± 22 nM and the Emax was found to be 51 ± 1%.

`c1ccc(C(CNc2nc(-c3ccc4ncsc4c3)nc3ccccc23)c2ccccc2)cc1` [compound 70, 2-(Benzo [D]Thiazol-6-yl)-N-(2,2-Diphenylethyl)Quinazolin-4-Amine] returned a melting point of 198 °C. In data set [1], the IC50 was found to be 45 ± 15 nM and the Emax turned out to be 67 ± 4%.

`CC(CNc1nc(-c2ccc3nccn3c2)nc2ccccc12)(c1ccccc1)c1ccccc1` [compound 164, N-(2,2-Diphenylpropyl)-2-(Imidazo[1,2-A]Pyridin-6-yl)Quinazolin-4-Amine] displayed a melting point of 107 to 109 °C. In addition, in data set [1], the IC50 was 6.4 ± 1.6 nM and the Emax is 76 ± 3%.

`COc1ccc(C(CNc2nc(-c3ccc4nccn4c3)nc3ccccc23)C2(O)CCCCC2)cc1` (centres unmarked) [compound 153, 1-(2-((2-(Imidazo[1,2-A]Pyridin-6-yl)Quinazolin-4-yl)Amino)-1-(4-Methoxyphenyl)ethyl)Cyclohexanol] showed a melting point of 247 to 249 °C. Besides, in data set [1], half-maximal inhibition (IC50) required 41 ± 8 nM and the Emax amounted to 70 ± 2%.

Compound `c1ccc(C2CN(c3nc(-c4cnc5nccn5c4)nc4ccccc34)Cc3ccccc32)cc1` (centres unmarked) [compound 143, 2-(Imidazo[1,2-A]Pyrimidin-6-yl)-4-(4-Phenyl-3,4-Dihydroisoquinolin-2(1H)-yl)Quinazoline] returned a melting point of 104 to 106 °C. For the same compound, in data set [1], half-maximal inhibition (IC50) was put at 502 ± 84 nM and the Emax was determined as 73 ± 3%.

In the case of `CCOC(=O)c1cn2cc(-c3nc(NCC(c4ccccc4)c4ccccc4)c4ccccc4n3)ccc2n1` [compound 113, Ethyl 6-(4-((2,2-Diphenylethyl)Amino)Quinazolin-2-yl)Imidazo[1,2-A]Pyridine-2-Carboxylate], the melting point is 204 °C. Also, in data set [1], the IC50 came to 74 ± 9 nM and the Emax worked out at 64 ± 1%.

`Cc1cc2nccn2cc1-c1nc(NCC(O)c2ccccc2)c2ccccc2n1` (centres unmarked) [compound 186] yielded a melting point of 221 to 224 °C. In data set [1], the IC50 was determined as 14 ± 3 nM and the Emax came to 74 ± 2%.

`Cc1cc2nccn2cc1-c1nc(NCC(C)(c2ccccc2)c2ccccc2)c2ccccc2n1` [compound 178, N-(2,2-Diphenylpropyl)-2-(7-Methylimidazo[1,2-A]Pyridin-6-yl)Quinazolin-4-Amine] returned a melting point of 275 to 277 °C. Besides, in data set [1], inhibition was half-maximal at 5 ± 1.1 nM (IC50) and the Emax stood at 76 ± 3%.

`Cc1cc2nccn2cc1-c1nc(NCCc2ccccn2)c2ccccc2n1` [compound 183, (7-Methylimidazo[1,2-A]Pyridin-6-yl)-N-(2-(Pyridin-2-yl)Ethyl)Quinazolin-4-Amine] yielded a melting point of 224 to 228 °C. In addition, in data set [1], the IC50 came out at 912 ± 195 nM and the Emax was found to be 77 ± 4%.

Take `O=C1Cc2cc(-c3nc(NCC(c4ccccc4)c4ccccc4)c4ccccc4n3)ccc2N1` [compound 78, 5-(4-((2,2-Diphenylethyl)Amino)Quinazolin-2-yl)Indolin-2-One]: the melting point worked out at 244 °C. In data set [1], the IC50 turned out to be 30 ± 5 nM and the maximal response (Emax) worked out at 77 ± 2%.

`c1ccc(CNc2ncc(-c3nc(NCC(c4ccccc4)c4ccccc4)c4ccccc4n3)cn2)cc1` [compound 46, 2-(2-(Benzylamino)Pyrimidin-5-yl)-N-(2,2-Diphenylethyl)Quinazolin-4-Amine] gave a melting point of 184 °C. In data set [1], the IC50 is 544 ± 248 nM and the Emax worked out at 60 ± 6%.

The compound `COCCNc1ncc(-c2nc(NCC(c3ccccc3)c3ccccc3)c3ccccc3n2)cn1` [compound 47, N-(2,2-Diphenylethyl)-2-(2-((2-Methoxyethyl)Amino)Pyrimidin-5-yl)Quinazolin-4-Amine] had a melting point of 199 °C. Further, in data set [1], the IC50 stood at 148 ± 40 nM and the Emax was 73 ± 4%.

In the case of `c1ccc(C(CNc2nc(-c3ccc4nccn4c3)nc3ccccc23)N2CCCC2)cc1` (centres unmarked) [compound 121, 2-(Imidazo[1,2-A]Pyridin-6-yl)-N-(2-Phenyl-2-(Pyrrolidin-1-yl)Ethyl)Quinazolin-4-Amine], the melting point was in the range of 205 to 207 °C. In addition, in data set [1], the IC50 amounted to 170 ± 50 nM and the maximal effect (Emax) is 83 ± 5%.
